Source: ChEMBL document CHEMBL1201862, “PubChem BioAssay data set” (2004)
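Five concentrations, 48 hours, 96-well plates. Abbreviation: GI50, concentration required for 50% inhibition of growth.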 Calls of active or inactive are those of the source. No stated cut-off is given here; in the data, active = GI50 up to about 1.1 µM and inactive = higher. Where a SMILES comes first, the peptide text is derived from it. [ ]: non-standard residue; d: D form. Phe(F5) = N[CH](Cc1c(F)c(F)c(F)c(F)c1F)C(=O)O

Tests used:
Assay in all cases: inhibition of tumour cell growth, NCI panel, 48 h
HL-60 = test system: HL-60
NCI-H226 = test system: NCI-H226
A498 = test system: A498
SW-620 = test system: SW-620
LXFL 529 = test system: LXFL 529
T47D = test system: T47D
MDA-N = test system: MDA-N
SNB-19 = test system: SNB-19
SR = test system: SR
SF-539 = test system: SF-539
DMS-114 = test system: DMS-114
COLO 205 = test system: COLO 205
MOLT-4 = test system: MOLT-4
SK-MEL-5 = test system: SK-MEL-5
DMS-273 = test system: DMS-273
HT-29 = test system: HT-29
PC-3 = test system: PC-3
HCT-15 = test system: HCT-15
UO-31 = test system: UO-31
OVCAR-8 = test system: OVCAR-8
HCT-116 = test system: HCT-116
SNB-75 = test system: SNB-75
A549 = test system: A549
ACHN = test system: ACHN
EKVX = test system: EKVX
NCI-H522 = test system: NCI-H522
CCRF-CEM = test system: CCRF-CEM
Malme-3M = test system: Malme-3M
NCI/ADR-RES = test system: NCI/ADR-RES
NCI-H23 = test system: NCI-H23
RXF 393 = test system: RXF 393
LOX IMVI = test system: LOX IMVI
IGROV-1 = test system: IGROV-1
UACC-62 = test system: UACC-62
MDA-MB-435 = test system: MDA-MB-435
SK-MEL-2 = test system: SK-MEL-2
SK-MEL-28 = test system: SK-MEL-28
KM12 = test system: KM12
DU-145 = test system: DU-145
UACC-257 = test system: UACC-257
KM-20L2 = test system: KM-20L2
CAKI-1 = test system: CAKI-1
XF498 = test system: XF498
OVCAR-3 = test system: OVCAR-3
SF-268 = test system: SF-268
RPMI-8226 = test system: RPMI-8226
OVCAR-5 = test system: OVCAR-5
MDA-MB-231 = test system: MDA-MB-231
DLD-1 = test system: DLD-1
HOP-18 = test system: HOP-18
SN12C = test system: SN12C
OVCAR-4 = test system: OVCAR-4
U-251 = test system: U-251
786-0 = test system: 786-0
M19-MEL = test system: M19-MEL
K562 = test system: K562
NCI-H460 = test system: NCI-H460
MCF7 = test system: MCF7
HCC 2998 = test system: HCC 2998
SF-295 = test system: SF-295
HOP-62 = test system: HOP-62
SNB-78 = test system: SNB-78
M14 = test system: M14
Hs-578T = test system: Hs-578T
SK-OV-3 = test system: SK-OV-3

## COC(=O)C(CC(C)C)NC(=O)C(Cc1c[nH]cn1)NC(=O)CNC(=O)C(NC(=O)C(C)NC(=O)C(Cc1c[nH]c2ccccc12)NC(=O)C(CCC(=O)O)NC(=O)C(N)Cc1c(F)c(F)c(F)c(F)c1F)C(C)C (stereo not given) (H-[Phe(F5)]EWAVGHL-OMe; configuration not given here)
HL-60
  GI50: > 12.5 µM (inactive)
NCI-H226
  GI50: > 12.5 µM (inactive)
A498
  GI50: > 12.5 µM (inactive)
SW-620
  GI50: > 12.5 µM (inactive)
LXFL 529
  GI50: > 100 µM (inactive)
T47D
  GI50: > 12.5 µM (inactive)
MDA-N
  GI50: > 12.5 µM (inactive)
SNB-19
  GI50: > 100 µM (inactive)
SR
  GI50: > 12.5 µM (inactive)
SF-539
  GI50: > 12.5 µM (inactive)
DMS-114
  GI50: > 100 µM (inactive)
COLO 205
  GI50: > 12.5 µM (inactive)
MOLT-4
  GI50: > 12.5 µM (inactive)
SK-MEL-5
  GI50: > 12.5 µM (inactive)
DMS-273
  GI50: > 100 µM (inactive)
HT-29
  GI50: > 12.5 µM (inactive)
PC-3
  GI50: > 12.5 µM (inactive)
HCT-15
  GI50: > 12.5 µM
UO-31
  GI50: > 12.5 µM (inactive)
OVCAR-8
  GI50: > 12.5 µM (inactive)
HCT-116
  GI50: > 12.5 µM (inactive)
SNB-75
  GI50: > 100 µM (inactive)
A549
  GI50: > 12.5 µM (inactive)
ACHN
  GI50: > 12.5 µM (inactive)
EKVX
  GI50: > 12.5 µM (inactive)
NCI-H522
  GI50: > 12.5 µM (inactive)
CCRF-CEM
  GI50: > 12.5 µM (inactive)
Malme-3M
  GI50: > 12.5 µM (inactive)
NCI/ADR-RES
  GI50: > 12.5 µM (inactive)
NCI-H23
  GI50: > 12.5 µM (inactive)
RXF 393
  GI50: > 12.5 µM (inactive)
LOX IMVI
  GI50: > 12.5 µM (inactive)
IGROV-1
  GI50: > 12.5 µM (inactive)
UACC-62
  GI50: > 12.5 µM (inactive)
MDA-MB-435
  GI50: > 12.5 µM (inactive)
SK-MEL-2
  GI50: > 12.5 µM (inactive)
SK-MEL-28
  GI50: > 12.5 µM (inactive)
KM12
  GI50: > 12.5 µM (inactive)
DU-145
  GI50: > 12.5 µM (inactive)
UACC-257
  GI50: > 12.5 µM (inactive)
KM-20L2
  GI50: > 100 µM (inactive)
CAKI-1
  GI50: > 12.5 µM (inactive)
XF498
  GI50: > 100 µM (inactive)
OVCAR-3
  GI50: > 12.5 µM (inactive)
SF-268
  GI50: > 12.5 µM (inactive)
RPMI-8226
  GI50: > 12.5 µM (inactive)
OVCAR-5
  GI50: > 12.5 µM (inactive)
MDA-MB-231
  GI50: > 12.5 µM (inactive)
DLD-1
  GI50: > 100 µM (inactive)
HOP-18
  GI50: > 100 µM (inactive)
SN12C
  GI50: > 12.5 µM (inactive)
OVCAR-4
  GI50: > 12.5 µM (inactive)
U-251
  GI50: > 12.5 µM (inactive)
786-0
  GI50: > 12.5 µM (inactive)
M19-MEL
  GI50: > 100 µM (inactive)
K562
  GI50: > 12.5 µM (inactive)
NCI-H460
  GI50: > 12.5 µM (inactive)
MCF7
  GI50: > 12.5 µM (inactive)
HCC 2998
  GI50: > 12.5 µM (inactive)
SF-295
  GI50: > 12.5 µM (inactive)
HOP-62
  GI50: > 12.5 µM (inactive)
SNB-78
  GI50: > 100 µM (inactive)
M14
  GI50: > 12.5 µM (inactive)
Hs-578T
  GI50: > 12.5 µM (inactive)
SK-OV-3
  GI50: > 12.5 µM (inactive)
